Source: ChEMBL document CHEMBL1201862, “PubChem BioAssay data set” (2004)
Calls of active or inactive are those of the source.

Columns and labels:
Type in all cases: functional
[1] = molecular target: T1, Neuropeptide Y receptor type 1 (Homo sapiens, UniProt P25929); test: Fluorescence-based counterscreen for agonists of NPY-Y2: cell-based high-throughput dose response assay for agonists of NPY-Y1.
T1 sequence (P25929 whole entry): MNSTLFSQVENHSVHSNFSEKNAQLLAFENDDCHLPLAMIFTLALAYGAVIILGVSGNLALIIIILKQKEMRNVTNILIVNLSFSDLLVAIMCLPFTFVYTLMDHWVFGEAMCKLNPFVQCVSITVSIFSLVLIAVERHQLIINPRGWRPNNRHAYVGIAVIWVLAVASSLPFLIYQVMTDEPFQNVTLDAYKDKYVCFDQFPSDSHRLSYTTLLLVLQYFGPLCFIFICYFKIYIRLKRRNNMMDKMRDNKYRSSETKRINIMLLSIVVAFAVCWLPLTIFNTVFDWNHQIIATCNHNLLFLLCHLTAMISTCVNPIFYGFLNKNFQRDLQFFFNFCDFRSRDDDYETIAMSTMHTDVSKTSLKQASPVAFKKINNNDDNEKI

[2] = molecular target: T2, Neuropeptide Y receptor type 2 (Homo sapiens, UniProt P49146); test: Fluorescence-based cell-based high-throughput dose response assay for agonists of NPY-Y2. [Related pubchem assays: 1703 (Screening assay (CNGC inhibitors).), 1359 (Screening assay (NPY-Y2 potentiators or agonists).), 1304 (Screening assay (NPY-Y1 potentiators or agonists).), 1710 (Screening assay (NPY-Y2 agonists).), 1791 (Summary AID.)]
T2 sequence (P49146 whole entry): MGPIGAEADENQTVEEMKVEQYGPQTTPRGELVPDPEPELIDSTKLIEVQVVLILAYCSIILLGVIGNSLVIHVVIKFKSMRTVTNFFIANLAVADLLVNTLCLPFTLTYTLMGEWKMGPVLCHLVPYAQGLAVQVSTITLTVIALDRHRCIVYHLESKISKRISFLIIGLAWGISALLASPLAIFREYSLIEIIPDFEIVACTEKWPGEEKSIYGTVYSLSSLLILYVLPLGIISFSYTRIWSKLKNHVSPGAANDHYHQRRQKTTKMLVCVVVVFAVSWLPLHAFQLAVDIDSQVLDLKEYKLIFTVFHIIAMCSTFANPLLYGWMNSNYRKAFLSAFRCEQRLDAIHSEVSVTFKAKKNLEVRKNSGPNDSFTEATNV

[3] = nonselective inhibitors of cellular cAMP signaling, dose response, counter-screen for MC4R biased antagonist project, cell-based, TR-FRET cAMP detection (AID 602305);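 further: U2OS cells stimulated with forskolin near its EC80 as the cAMP inducer; potency is for inhibition of forskolin-stimulated cAMP signaling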
[4] = molecular target: Melanocortin receptor 4 (Homo sapiens, UniProt P32245); test: MC4R antagonist potency on cAMP, dose response, cell-based, TR-FRET, biased antagonists (AID 602298);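 further: antagonist potency against agonist-stimulated cAMP production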
[5] = test system: HEK293; test: Fluorescence-based counterscreen for potentiators or agonists of NPY-Y2: cell-based high-throughput dose response assay to identify inhibitors of cyclic nucleotide gated ion channel (CNGC) activity. In this assay, the parental HEK293 cell line transfected with a cyclic-nucleotide gated ion channel (CNGC)-based cAMP sensor is used to measure inhibition of isoproterenol-induced CNGC activity by test compound.; settings: Homo sapiens;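 further: stimulus is 1 µM isoproterenol at EC100 plus PDE inhibitor Ro 20-1724 at 25 µM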
[6] = molecular target: T3, High affinity choline transporter 1 (Homo sapiens, UniProt Q9GZV3); test: CHT inhibitors, dose response, cell-based, 5-point CRC, membrane potential dye (AID 504840)
T3 sequence (Q9GZV3 whole entry): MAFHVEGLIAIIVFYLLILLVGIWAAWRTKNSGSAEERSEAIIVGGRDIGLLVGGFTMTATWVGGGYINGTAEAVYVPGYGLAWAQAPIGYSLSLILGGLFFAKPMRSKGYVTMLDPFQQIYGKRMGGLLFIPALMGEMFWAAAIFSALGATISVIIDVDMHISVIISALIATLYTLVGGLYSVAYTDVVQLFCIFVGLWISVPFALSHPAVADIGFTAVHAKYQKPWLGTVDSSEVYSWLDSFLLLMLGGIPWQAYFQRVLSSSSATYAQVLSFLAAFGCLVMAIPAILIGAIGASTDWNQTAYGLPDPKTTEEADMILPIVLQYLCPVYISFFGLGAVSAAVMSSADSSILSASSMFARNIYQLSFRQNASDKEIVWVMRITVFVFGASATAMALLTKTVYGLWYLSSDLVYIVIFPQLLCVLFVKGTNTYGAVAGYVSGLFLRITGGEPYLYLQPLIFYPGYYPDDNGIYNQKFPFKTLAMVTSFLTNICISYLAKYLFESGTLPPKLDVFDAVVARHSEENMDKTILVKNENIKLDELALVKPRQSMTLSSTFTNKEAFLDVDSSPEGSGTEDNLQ

[7] = molecular target: T3, High affinity choline transporter 1; test: CHT inhibitors, dose response, cell-based, 10-point CRC, membrane potential dye (AID 588401);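 further: membrane potential dye fluorescence of choline-evoked depolarization via CHT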
[8] = THP-1 cell cytotoxicity, cytotoxicity control, set 5 (AID 588443)
[9] = Vero cell cytotoxicity, dose response, cytotoxicity control for M. tuberculosis inhibitor project, purified and synthesized compounds, set 6 (AID 588445); settings: Mycobacterium tuberculosis
[10] = molecular target: T4, Melanin-concentrating hormone receptor 1 (Homo sapiens, UniProt Q99705); test: Late-stage fluorescence-based counterscreen for antagonists of the G-protein coupled receptor 7 (GPR7): cell-based dose response assay to identify antagonists of the melanin-concentrating hormone receptor 1 (MCHR1) Set 5.
[11] = molecular target: T5, Neuropeptides B/W receptor type 1 (Homo sapiens, UniProt P48145); test: GPR7 antagonist potency, late-stage follow-up, cell-based, fluorescence, dose response, set 5 (AID 588566)
T5 sequence (P48145 whole entry): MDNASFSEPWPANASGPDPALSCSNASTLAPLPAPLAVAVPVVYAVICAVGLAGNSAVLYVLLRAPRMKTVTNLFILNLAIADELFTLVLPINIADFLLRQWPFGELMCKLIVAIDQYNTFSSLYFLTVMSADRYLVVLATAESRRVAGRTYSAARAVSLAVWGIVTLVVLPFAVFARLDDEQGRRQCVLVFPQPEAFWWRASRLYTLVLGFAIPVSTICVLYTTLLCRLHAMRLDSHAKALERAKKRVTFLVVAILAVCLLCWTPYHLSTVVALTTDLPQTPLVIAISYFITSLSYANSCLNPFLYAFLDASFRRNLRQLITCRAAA

[12] = molecular target: T5, Neuropeptides B/W receptor type 1; test: GPR7 antagonist potency, late-stage follow-up, cell-based, fluorescence, dose response, set 6 (AID 588583)
[13] = molecular target: T4, Melanin-concentrating hormone receptor 1; test: Late-stage fluorescence-based counterscreen for antagonists of the G-protein coupled receptor 7 (GPR7): cell-based dose response assay to identify antagonists of the melanin-concentrating hormone receptor 1 (MCHR1) Set 6.

T4 sequence (Q99705 whole entry): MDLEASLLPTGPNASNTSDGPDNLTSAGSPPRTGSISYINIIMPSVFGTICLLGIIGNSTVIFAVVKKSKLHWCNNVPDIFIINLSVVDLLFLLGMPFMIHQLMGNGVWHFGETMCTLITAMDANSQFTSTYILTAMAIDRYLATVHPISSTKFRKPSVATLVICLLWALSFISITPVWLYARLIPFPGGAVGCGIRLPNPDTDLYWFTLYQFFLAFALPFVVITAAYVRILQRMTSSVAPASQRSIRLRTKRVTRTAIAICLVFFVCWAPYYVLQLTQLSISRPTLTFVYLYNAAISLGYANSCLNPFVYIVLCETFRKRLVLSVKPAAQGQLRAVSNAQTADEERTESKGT
Sequence of Melanocortin receptor 4 (P32245 whole entry): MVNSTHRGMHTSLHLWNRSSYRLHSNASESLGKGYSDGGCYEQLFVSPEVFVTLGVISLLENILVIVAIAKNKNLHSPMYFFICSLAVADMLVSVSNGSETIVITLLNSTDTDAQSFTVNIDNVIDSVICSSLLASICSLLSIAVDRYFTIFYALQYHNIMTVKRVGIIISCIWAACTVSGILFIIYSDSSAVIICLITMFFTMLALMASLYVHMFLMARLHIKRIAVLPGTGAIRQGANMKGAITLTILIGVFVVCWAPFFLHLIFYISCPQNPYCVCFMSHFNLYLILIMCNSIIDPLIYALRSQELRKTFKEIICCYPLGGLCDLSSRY

O=C(Nc1ccccc1C(=O)N1CCCC1)c1ccc(Cl)c([N+](=O)[O-])c1
EC50 [1]: 18.6 µM (not active) | EC50 [2]: 27.9 µM (not active) | IC50 [3]: > 64.6 µM (inactive) | IC50 [4]: 20.6 µM (inactive) | EC50 [5]: 28 µM (not active)

O=C(O)CC1=C(Nc2ccccc2)C(=O)N(c2ccccc2)C1c1ccc(F)cc1 (stereo not drawn)
IC50 [6]: 3.9 µM (active) | IC50 [7]: 0.751 µM (active)

O=C(c1ccc(CNc2c(N3CCCC3)c(=O)c2=O)cc1)N1CC=C(c2ccccc2)CC1
CC50 [8]: 75.8 µM (active) | CC50 [9]: > 100 µM (inconclusive)

COc1ccc(Oc2c(Cl)cnn(Cc3ccc(C(=O)c4ccccc4)cc3)c2=O)cc1
IC50 [10]: 2.46 µM (active) | IC50 [11]: 5.25 µM (active)

N#CC(c1ccc(F)cc1F)c1c(Cl)cnn(Cc2cccc3ccccc23)c1=O (stereo not drawn)
IC50 [12]: 0.214 µM (active) | IC50 [13]: 0.214 µM (active)
